Data reported in patent publication US6472348B1, “Pyridone derivatives and herbicides” (Kumiai Chemical Industry Co., Ltd., priority 1996, dated 2002).

Legend:
barnyardgrass (Ec) [1] = test: Test Example 1: herbicidal effects by paddy field soil treatment; format: in vivo; conditions: 100 g of the active ingredient per 10 ares, 21st day after the application, index 0-5 of Table 47;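 further: grade of growth control; 5 = at least 90%; 4 = 70 to 90%; 3 = 50 to 70%; 2 = 30 to 50%; 1 = 10 to 30%; 0 = under 10%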
Outline: (§1)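 Scoring of herbicidal effect came 21 days after application of 100 g active ingredient per 10 ares to flooded (3 cm) paddy-soil pots sown with barnyardgrass, monochoria and bulrush, kept in a greenhouse.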

bulrush (Sc) = test: as above; format: in vivo; conditions: 100 g of the active ingredient per 10 ares, 21st day after the application, index 0-5 of Table 47;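 further: grade of growth control; 5 = at least 90%; 4 = 70 to 90%; 3 = 50 to 70%; 2 = 30 to 50%; 1 = 10 to 30%; 0 = under 10%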
Outline: as §1

monochoria (Mo) = test: as above; format: in vivo; conditions: 100 g of the active ingredient per 10 ares, 21st day after the application, index 0-5 of Table 47;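 further: grade of growth control; 5 = at least 90%; 4 = 70 to 90%; 3 = 50 to 70%; 2 = 30 to 50%; 1 = 10 to 30%; 0 = under 10%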
Outline: as §1

Digitaria ciliaris (Di) = test: Test Example 2: herbicidal effects by upland field soil treatment; format: in vivo; conditions: 100 g of the active ingredient per 10 ares;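 further: grade of growth control; 5 = at least 90%; 4 = 70 to 90%; 3 = 50 to 70%; 2 = 30 to 50%; 1 = 10 to 30%; 0 = under 10%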
Excerpt: (§2) (Test on Herbicidal Effects by Upland Field Soil Treatment)

barnyardgrass (Ec) [2] = test: as above; format: in vivo; conditions: 100 g of the active ingredient per 10 ares
Excerpt: as §2

[3] = tested on: common lambsquarters (Ch); test: as above; format: in vivo; conditions: 100 g of the active ingredient per 10 ares
Excerpt: as §2

pale smartweed (Po) [4] = test: as above; format: in vivo; conditions: 100 g of the active ingredient per 10 ares
Excerpt: as §2

rice flatsedge (Ci) [5] = test: as above; format: in vivo; conditions: 100 g of the active ingredient per 10 ares
Excerpt: as §2

slender amaranth (Am) [6] = test: as above; format: in vivo; conditions: 100 g of the active ingredient per 10 ares
Excerpt: as §2

Diaitaria ciliaris (Di) = test: Test Example 3: herbicidal effects by upland field foliage treatment; format: in vivo; parameters: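 grade of growth control; 5 = at least 90%; 4 = 70 to 90%; 3 = 50 to 70%; 2 = 30 to 50%; 1 = 10 to 30%; 0 = under 10%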; conditions: 100 g of the active ingredient per 10 ares, evaluated on the 14th day after treatment
Outline: (§3)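 Weeds were sown in sand-filled pots (surface area: 120 cm^2), covered with soil and grown in a greenhouse for 2 weeks before foliar treatment. Plants then stayed in the greenhouse, and herbicidal effect was scored against graded standards on the 14th day after treatment.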

barnyardgrass (Ec) [7] = test: as above; format: in vivo; parameters: scale not given here; conditions: 100 g of the active ingredient per 10 ares, evaluated on the 14th day after treatment
Outline: as §3

[8] = tested on: common lambsquarters (Ch); test: as above; format: in vivo; parameters: scale not given here; conditions: 100 g of the active ingredient per 10 ares, evaluated on the 14th day after treatment
Outline: as §3

pale smartweed (Po) [9] = test: as above; format: in vivo; parameters: scale not given here; conditions: 100 g of the active ingredient per 10 ares, evaluated on the 14th day after treatment
Outline: as §3

rice flatsedge (Ci) [10] = test: as above; format: in vivo; parameters: scale not given here; conditions: 100 g of the active ingredient per 10 ares, evaluated on the 14th day after treatment
Outline: as §3

slender amaranth (Am) [11] = test: as above; format: in vivo; parameters: scale not given here; conditions: 100 g of the active ingredient per 10 ares, evaluated on the 14th day after treatment
Outline: as §3

cotton (Go) = test: Test Example 4: crop plant selectivity by upland field soil treatment (cotton), phytotoxicity; format: in vivo; parameters: scale not given here; conditions: dose 6.3 g ai/10 a, evaluated 21st day after application
Outline: (§4)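 Seeds of cotton and several weed species were sown in sand-filled pots and covered with soil before soil treatment with the test compound. Plants were grown in a greenhouse, and herbicidal effect and crop phytotoxicity were scored against set standards 21 days after application.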

China jute (Ab) [12] = test: Test Example 4: crop plant selectivity by upland field soil treatment (cotton), herbicidal effects; format: in vivo; parameters: scale not given here; conditions: dose 6.3 g ai/10 a, evaluated 21st day after application
Outline: as §4

[13] = tested on: common lambsquarters (Ch); test: as above; format: in vivo; parameters: scale not given here; conditions: dose 6.3 g ai/10 a, evaluated 21st day after application
Outline: as §4

green foxtail (Se) [14] = test: as above; format: in vivo; parameters: scale not given here; conditions: dose 6.3 g ai/10 a, evaluated 21st day after application
Outline: as §4

pale smartweed (Po) [15] = test: as above; format: in vivo; parameters: scale not given here; conditions: dose 6.3 g ai/10 a, evaluated 21st day after application
Outline: as §4

slender amaranth (Am) [16] = test: as above; format: in vivo; parameters: scale not given here; conditions: dose 6.3 g ai/10 a, evaluated 21st day after application
Outline: as §4

corn (Ze) [17] = test: Test Example 7: crop plant selectivity by upland field soil treatment (corn), phytotoxicity; format: in vivo; parameters: scale not given here; conditions: dose 6.3 g ai/10a, 21st day after application
Outline: (§5)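 Corn and weeds (green foxtail, pale smartweed, slender amaranth, common lambsquarters, China jute) sown in sand-filled pots, covered with soil and treated by soil application. Grown in a greenhouse; herbicidal effect and crop phytotoxicity scored on day 21 after application using a fixed rating scale.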

China jute (Ab) [18] = test: Test Example 7: crop plant selectivity by upland field soil treatment (corn), herbicidal effects; format: in vivo; parameters: scale not given here; conditions: dose 6.3 g ai/10a, 21st day after application
Outline: as §5

[19] = tested on: common lambsquarters (Ch); test: as above; format: in vivo; parameters: scale not given here; conditions: dose 6.3 g ai/10a, 21st day after application
Outline: as §5

green foxtail (Se) [20] = test: as above; format: in vivo; parameters: scale not given here; conditions: dose 6.3 g ai/10a, 21st day after application
Outline: as §5

pale smartweed (Po) [21] = test: as above; format: in vivo; parameters: scale not given here; conditions: dose 6.3 g ai/10a, 21st day after application
Outline: as §5

slender amaranth (Am) [22] = test: as above; format: in vivo; parameters: scale not given here; conditions: dose 6.3 g ai/10a, 21st day after application
Outline: as §5

wheat (Tr) = test: Test Example 9: crop plant selectivity by upland field foliage treatment (wheat), phytotoxicity; conditions: dose 1.6 g ai/10a, 14th day after treatment
Outline: (§6)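 Wheat and broadleaf weeds were sown together in sand-filled pots and grown for 2 weeks in a greenhouse before foliar treatment. Herbicidal effect on weeds and phytotoxicity to wheat were scored visually against set grading standards on day 14 after treatment, with plants kept in the greenhouse.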

China jute (Ab) [23] = test: Test Example 9: crop plant selectivity by upland field foliage treatment (wheat), herbicidal effects; format: in vivo; parameters: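 grade of growth control; 5 = at least 90%; 4 = 70 to 90%; 3 = 50 to 70%; 2 = 30 to 50%; 1 = 10 to 30%; 0 = under 10%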; conditions: dose 1.6 g ai/10a, 14th day after treatment
Outline: as §6

[24] = tested on: common lambsquarters (Ch); test: as above; format: in vivo; parameters: scale not given here; conditions: dose 1.6 g ai/10a, 14th day after treatment
Outline: as §6

pale smartweed (Po) [25] = test: as above; format: in vivo; parameters: scale not given here; conditions: dose 1.6 g ai/10a, 14th day after treatment
Outline: as §6

slender amaranth (Am) [26] = test: as above; format: in vivo; parameters: scale not given here; conditions: dose 1.6 g ai/10a, 14th day after treatment
Outline: as §6

corn (Ze) [27] = test: Test Example 11: crop plant selectivity by upland field foliage treatment (corn), phytotoxicity; conditions: upland field foliage treatment, dose 1.6 g ai/10a, 14th day after treatment
Outline: (§7)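 Corn with pale smartweed, slender amaranth, common lambsquarters and China jute sown in sand-filled pots and grown 2 weeks in a greenhouse before foliage treatment. Herbicidal effect and crop phytotoxicity scored on day 14 after treatment against a rating standard.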

China jute (Ab) [28] = test: Test Example 11: crop plant selectivity by upland field foliage treatment (corn), herbicidal effects; format: in vivo; parameters: scale not given here; conditions: upland field foliage treatment (corn test), dose 1.6 g ai/10a, 14th day after treatment
Outline: as §7

[29] = tested on: common lambsquarters (Ch); test: as above; format: in vivo; parameters: scale not given here; conditions: upland field foliage treatment (corn test), dose 1.6 g ai/10a, 14th day after treatment
Outline: as §7

pale smartweed (Po) [30] = test: as above; format: in vivo; parameters: scale not given here; conditions: upland field foliage treatment (corn test), dose 1.6 g ai/10a, 14th day after treatment
Outline: as §7

slender amaranth (Am) [31] = test: as above; format: in vivo; parameters: scale not given here; conditions: upland field foliage treatment (corn test), dose 1.6 g ai/10a, 14th day after treatment
Outline: as §7

soybean (Gl) = test: Test Example 6: crop plant selectivity by upland field soil treatment (soybean), phytotoxicity; format: in vivo; parameters: scale not given here; conditions: dose 6.3 g ai/10a, 21st day after application
Outline: (§8)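 Soybean and weed seeds were sown in sand-filled pots and covered with soil, then given a pre-emergence soil application. Plants were grown on in a greenhouse, and herbicidal effect and crop phytotoxicity were scored against a set rating scale 21 days after application.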

China jute (Ab) [32] = test: Test Example 6: crop plant selectivity by upland field soil treatment (soybean), herbicidal effects; format: in vivo; parameters: scale not given here; conditions: dose 6.3 g ai/10a, 21st day after application
Outline: as §8

[33] = tested on: common lambsquarters (Ch); test: as above; format: in vivo; parameters: scale not given here; conditions: dose 6.3 g ai/10a, 21st day after application
Outline: as §8

green foxtail (Se) [34] = test: as above; format: in vivo; parameters: scale not given here; conditions: dose 6.3 g ai/10a, 21st day after application
Outline: as §8

pale smartweed (Po) [35] = test: as above; format: in vivo; parameters: scale not given here; conditions: dose 6.3 g ai/10a, 21st day after application
Outline: as §8

slender amaranth (Am) [36] = test: as above; format: in vivo; parameters: scale not given here; conditions: dose 6.3 g ai/10a, 21st day after application
Outline: as §8

[37] = 21st day after the application, index 0-5 of Table 47
[38] = evaluated on the 21st day after application

Compound | Herbicidal effects Ec (barnyardgrass (Ec) [1]) | Herbicidal effects Sc (bulrush (Sc)) | Herbicidal effects Mo (monochoria (Mo)) | Herbicidal effects Di (Diaitaria ciliaris (Di)) | Herbicidal effects Ec (barnyardgrass (Ec) [7]) | Herbicidal effects Ch [8] | Herbicidal effects Po (pale smartweed (Po) [9]) | Herbicidal effects Ci (rice flatsedge (Ci) [10]) | Herbicidal effects Am (slender amaranth (Am) [11]) | Phytotoxicity Go (cotton (Go)) | Herbicidal effects Ab (China jute (Ab) [12]) | Herbicidal effects Ch [13] | Herbicidal effects Se (green foxtail (Se) [14]) | Herbicidal effects Po (pale smartweed (Po) [15]) | Herbicidal effects Am (slender amaranth (Am) [16]) | Phytotoxicity Tr (wheat (Tr)) | Herbicidal effects Ab (China jute (Ab) [23]) | Herbicidal effects Ch [24] | Herbicidal effects Po (pale smartweed (Po) [25]) | Herbicidal effects Am (slender amaranth (Am) [26]) | further results
Cn1c(C(F)(F)F)ccc(-c2cc(Oc3ncccn3)c(Cl)cc2Cl)c1=O [1-41] | 5 | 5 | 5 | 5 | 5 | 5 | 5 | 5 | 5 | 1 | 5 | 5 | 5 | 5 | 5 | 2 | 5 | 5 | 5 | 5 | Herbicidal effects Di (Digitaria ciliaris (Di); [37]): 5; Herbicidal effects Ec (barnyardgrass (Ec) [2]; [37]): 5; Herbicidal effects Ch [3, 37]: 5; Herbicidal effects Po (pale smartweed (Po) [4]; [37]): 5; Herbicidal effects Ci (rice flatsedge (Ci) [5]; [37]): 5; Herbicidal effects Am (slender amaranth (Am) [6]; [37]): 5; Phytotoxicity Ze (corn (Ze) [17]): 1; Herbicidal effects Ab (China jute (Ab) [18]): 5; Herbicidal effects Ch [19]: 5; Herbicidal effects Se (green foxtail (Se) [20]): 5; Herbicidal effects Po (pale smartweed (Po) [21]): 5; Herbicidal effects Am (slender amaranth (Am) [22]): 5; Phytotoxicity Ze (corn (Ze) [27]): 2; Herbicidal effects Ab (China jute (Ab) [28]): 5; Herbicidal effects Ch [29]: 5; Herbicidal effects Po (pale smartweed (Po) [30]): 5; Herbicidal effects Am (slender amaranth (Am) [31]): 5
COCCOc1cc(-c2ccc(C(F)(F)F)n(C)c2=O)c(F)cc1Cl [1-170] | 5 | 5 | 5 | 5 | 5 | 5 | 5 | 5 | 5 | 1 | 5 | 5 | 5 | 5 | 5 | 1 | 5 | 5 | 5 | 5 | Herbicidal effects Di (Digitaria ciliaris (Di); [38]): 5; Herbicidal effects Ec (barnyardgrass (Ec) [2]; [38]): 5; Herbicidal effects Ch [3, 38]: 5; Herbicidal effects Po (pale smartweed (Po) [4]; [38]): 5; Herbicidal effects Ci (rice flatsedge (Ci) [5]; [38]): 5; Herbicidal effects Am (slender amaranth (Am) [6]; [38]): 5; Phytotoxicity Gl (soybean (Gl)): 2; Herbicidal effects Ab (China jute (Ab) [32]): 5; Herbicidal effects Ch [33]: 5; Herbicidal effects Se (green foxtail (Se) [34]): 5; Herbicidal effects Po (pale smartweed (Po) [35]): 5; Herbicidal effects Am (slender amaranth (Am) [36]): 5; Phytotoxicity Ze (corn (Ze) [27]): 0; Herbicidal effects Ab (China jute (Ab) [28]): 5; Herbicidal effects Ch [29]: 5; Herbicidal effects Po (pale smartweed (Po) [30]): 5; Herbicidal effects Am (slender amaranth (Am) [31]): 5
Cn1c(C(F)(F)F)ccc(-c2c(Cl)cc(Cl)c3oc(C(Br)(Br)Br)cc23)c1=O [4-40, 3-(5,7-dichloro-2-tribromomethylbenzofuran-4-yl)-1-methyl-6-trifluoromethyl-2-(1H)-pyridone] | – | – | – | – | – | – | – | – | – | – | – | – | – | – | – | – | – | – | – | – | melting point: 225 to 227 °C
